Key:
Type in all cases: biochemical
[1] = biological target: T1, human B-Raf protein kinase (Homo sapiens, UniProt P15056); assay: In vitro B-Raf/Mek1 composite kinase assay; details: recombinant GST-tagged human B-Raf (Δ1-415) with inactive Mek1, 2 μM ATP
T1 construct: GST (N); purchased Upstate Inc. 14-530 (B-Raf); 14-420 (Mek1)
Procedure: In Vitro B-Raf/Mek1 Composite Kinase Assay
2.5 μl of B-Raf kinase buffer (20 mM MOPS [pH 7.2], 25 mM sodium glycerophosphate, 2 mM EGTA [pH 8.0], 1 mM sodium orthovanadate, 1 mM dithiothreitol, 10 mM MgCl2, 0.03% Brij-35, 0.3 mg/ml bovine serum albumin) containing 1 ng of recombinant, N-terminal GST-tagged human B-Raf protein kinase (Δ1-415, Upstate Inc., cat. #14-530) is dispensed to wells of a 1536 multi-well white solid plate. 60 nl of 100× concentration of test compound in DMSO is dispensed to the well by passive pin transfer and incubated for 15 minutes at room temperature (approx. 22° C.). […] The assay plates are sealed and maintained in a humidified environment. After 2 hours, 2.5 μl of PKLight protein kinase assay reagent (Cambrex, cat. #LT07-501) is dispensed. After an additional 5 minute incubation at room temperature, luminescence activity is measured on a Molecular Devices Analyst multi-mode plate reader or other suitable plate reader. Kinase inhibition results in less ATP depletion, and therefore increased luminescence signal. Negative control activity is measured with DMSO lacking any test compound. The positive control is [N-(3-trifluoromethyl-4-chlorophenyl)-N′-(4-(2-methylcarbamoyl-pyridin-4-yl)oxyphenyl)urea], aka Bay 43-9006. Efficacy is measured as a percentage of positive control activity.

[2] = biological target: T2, VEGFR2 kinase (Homo sapiens, UniProt P35968); assay: In vitro VEGFR2 kinase assay; details: ADP Quest assay, poly Glu:Tyr substrate, 60 μM ATP
T2 construct: purchased Invitrogen Inc PV3660
Procedure: (§1) In vitro vegfr2 and PDGFRβ Kinase Assays
(§2) 2.5 μl of ADP Quest assay buffer (DiscoverX Inc., cat. #90-0071) containing 20 ng VEGFR2 kinase (Invitrogen Inc, cat. #PV3660) or 25 ng PDGFRβ kinase (Invitrogen Inc., cat. #P3082) is dispensed to wells of a 1536 multi-well, black solid plate. 60 nl of 100× concentration of test compound in DMSO is dispensed to the well by passive pin transfer and incubated for 10 minutes at room temperature (approx. 22° C.). 2.5 μl of ADP Quest assay buffer containing 0.25 μg of poly Glu:Tyr (4:1) substrate peptide (Upstate Inc., cat. #12-440) and 60 μM ATP is then dispensed and the kinase reaction allowed to incubate at 30° C. for 2 hours. The assay plates are sealed and maintained in a humidified environment. After the 2 hour incubation, 2 μl of ADP Quest assay reagent A, followed by 2 μl of assay reagent B, is added. After an additional 30 minute incubation at room temperature, fluorescence intensity is measured on a Molecular Devices Aquest multi-mode plate reader or other suitable plate reader (fluorescence excitation filter: 530/25 [Peak (nm)/FWHM passband (nm)]; dichroic beamsplitter: 561 nm longpass; fluorescence emission filter: 580/10 [Peak (nm)/FWHM passband (nm)]. The assay measures the conversion of a non-fluoresecent molecule to fluorescent resorutin, which correlates with kinase activity. Negative control activity is measured with DMSO lacking any test compound. The positive control is [N-(3-trifluoromethyl-4-chlorophenyl)-N′-(4-(2-methylcarbamoyl-pyridin-4-yl)oxyphenyl)urea], aka Bay 43-9006. Efficacy is measured as a percentage of positive control activity.

[3] = biological target: T3, PDGFRβ kinase (Homo sapiens, UniProt P09619); assay: In vitro PDGFRβ kinase assay; details: ADP Quest assay, poly Glu:Tyr substrate, 60 μM ATP
T3 construct: purchased Invitrogen Inc. P3082
Procedure: as §1, §2

T2 sequence (P35968 20-1356): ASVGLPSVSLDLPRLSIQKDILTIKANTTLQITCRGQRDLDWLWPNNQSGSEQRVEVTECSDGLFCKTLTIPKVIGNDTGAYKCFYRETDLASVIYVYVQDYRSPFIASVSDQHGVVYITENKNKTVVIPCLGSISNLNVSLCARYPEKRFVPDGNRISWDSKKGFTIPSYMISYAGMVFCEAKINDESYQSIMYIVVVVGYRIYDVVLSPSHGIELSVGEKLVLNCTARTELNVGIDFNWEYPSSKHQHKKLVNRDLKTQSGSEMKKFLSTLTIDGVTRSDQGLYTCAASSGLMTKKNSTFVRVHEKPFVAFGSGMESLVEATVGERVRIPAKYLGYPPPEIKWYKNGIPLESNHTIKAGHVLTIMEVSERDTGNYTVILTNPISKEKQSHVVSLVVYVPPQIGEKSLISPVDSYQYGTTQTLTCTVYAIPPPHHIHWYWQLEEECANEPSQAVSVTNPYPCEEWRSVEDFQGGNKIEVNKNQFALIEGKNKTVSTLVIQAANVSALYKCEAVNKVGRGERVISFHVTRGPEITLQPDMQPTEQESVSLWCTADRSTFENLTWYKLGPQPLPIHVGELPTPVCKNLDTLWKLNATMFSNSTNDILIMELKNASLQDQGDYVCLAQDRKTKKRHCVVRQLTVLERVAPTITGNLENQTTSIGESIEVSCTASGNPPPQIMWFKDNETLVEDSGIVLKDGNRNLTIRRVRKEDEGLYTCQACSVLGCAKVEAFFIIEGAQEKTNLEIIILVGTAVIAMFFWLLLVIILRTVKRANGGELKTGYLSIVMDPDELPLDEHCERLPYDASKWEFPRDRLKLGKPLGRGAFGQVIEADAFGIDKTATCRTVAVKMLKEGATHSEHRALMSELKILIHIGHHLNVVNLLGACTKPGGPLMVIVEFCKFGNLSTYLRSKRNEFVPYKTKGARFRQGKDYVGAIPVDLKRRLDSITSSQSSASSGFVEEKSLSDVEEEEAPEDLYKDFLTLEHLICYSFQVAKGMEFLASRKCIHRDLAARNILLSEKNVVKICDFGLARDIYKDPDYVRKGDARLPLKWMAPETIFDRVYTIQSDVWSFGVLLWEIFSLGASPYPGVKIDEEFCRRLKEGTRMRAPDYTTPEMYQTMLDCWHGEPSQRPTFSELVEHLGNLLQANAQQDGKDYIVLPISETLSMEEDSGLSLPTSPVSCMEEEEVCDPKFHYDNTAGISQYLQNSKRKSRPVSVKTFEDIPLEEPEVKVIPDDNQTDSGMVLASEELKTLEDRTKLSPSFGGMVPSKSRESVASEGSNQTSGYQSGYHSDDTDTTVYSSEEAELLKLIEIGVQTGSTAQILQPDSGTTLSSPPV
T3 sequence (P09619 33-1106): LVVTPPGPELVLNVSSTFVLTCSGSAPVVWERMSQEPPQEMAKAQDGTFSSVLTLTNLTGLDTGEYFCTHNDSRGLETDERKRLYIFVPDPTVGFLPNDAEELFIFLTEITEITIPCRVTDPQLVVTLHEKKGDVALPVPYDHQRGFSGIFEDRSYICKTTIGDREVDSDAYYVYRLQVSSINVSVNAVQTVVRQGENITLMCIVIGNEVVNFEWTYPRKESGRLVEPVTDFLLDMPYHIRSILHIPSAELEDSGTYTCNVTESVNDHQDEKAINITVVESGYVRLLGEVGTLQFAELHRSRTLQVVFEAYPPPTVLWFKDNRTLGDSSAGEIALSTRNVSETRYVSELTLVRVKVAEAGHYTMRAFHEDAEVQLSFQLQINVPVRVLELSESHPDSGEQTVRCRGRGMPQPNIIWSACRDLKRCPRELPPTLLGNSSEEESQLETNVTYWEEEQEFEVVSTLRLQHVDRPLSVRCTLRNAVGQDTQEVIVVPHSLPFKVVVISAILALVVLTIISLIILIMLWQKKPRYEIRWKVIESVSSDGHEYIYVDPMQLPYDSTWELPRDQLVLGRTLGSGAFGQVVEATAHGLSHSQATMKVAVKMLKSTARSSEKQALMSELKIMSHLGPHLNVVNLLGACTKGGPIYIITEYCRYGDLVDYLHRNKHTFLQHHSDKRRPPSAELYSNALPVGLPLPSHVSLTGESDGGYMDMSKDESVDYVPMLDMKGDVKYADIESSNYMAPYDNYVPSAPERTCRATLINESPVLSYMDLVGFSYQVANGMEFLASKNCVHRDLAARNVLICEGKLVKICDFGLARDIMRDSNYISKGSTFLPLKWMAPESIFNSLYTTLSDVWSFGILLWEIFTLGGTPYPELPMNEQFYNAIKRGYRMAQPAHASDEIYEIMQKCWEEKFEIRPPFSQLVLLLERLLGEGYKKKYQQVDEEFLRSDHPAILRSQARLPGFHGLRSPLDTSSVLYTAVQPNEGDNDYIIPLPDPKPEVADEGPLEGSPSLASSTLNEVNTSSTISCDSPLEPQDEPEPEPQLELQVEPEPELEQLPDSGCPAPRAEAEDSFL
T1 sequence (P15056 416-766): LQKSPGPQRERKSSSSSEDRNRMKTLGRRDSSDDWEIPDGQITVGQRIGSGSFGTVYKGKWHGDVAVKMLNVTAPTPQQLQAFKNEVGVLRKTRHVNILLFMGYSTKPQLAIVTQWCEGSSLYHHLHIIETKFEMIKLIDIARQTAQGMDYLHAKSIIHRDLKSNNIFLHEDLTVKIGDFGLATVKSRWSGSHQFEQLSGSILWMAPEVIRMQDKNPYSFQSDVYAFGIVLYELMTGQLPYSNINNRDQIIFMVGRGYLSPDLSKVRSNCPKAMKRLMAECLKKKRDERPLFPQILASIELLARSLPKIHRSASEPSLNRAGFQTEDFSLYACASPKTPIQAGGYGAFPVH

Compound	IC50 [1] [µM]	IC50 [2] [µM]	IC50 [3] [µM]
O=C(Nc1ccc(Oc2cc(-n3cncn3)ncn2)cc1)Nc1ccc(Cl)c(C(F)(F)F)c1 [Example 1, 1-(4-Chloro-3-trifluoromethyl-phenyl)-3-[4-(6-[1,2,4]triazol-1-yl-pyrimidin-4-yloxy)-phenyl]-urea]	≤ 10	≤ 10	≤ 10
O=C(Nc1ccc(Oc2ccnc(-n3cncn3)n2)cc1)Nc1ccc(Cl)c(C(F)(F)F)c1 [Example 2, 1-(4-Chloro-3-trifluoromethyl-phenyl)-3-[4-(2-[1,2,4]triazol-1-yl-pyrimidin-4-yloxy)-phenyl]-urea]	> 10	> 10	> 10
O=C(Nc1ccc(Oc2cc(-c3ncon3)ncn2)cc1)Nc1ccc(Cl)c(C(F)(F)F)c1 [Example 3, 1-(4-Chloro-3-trifluoromethyl-phenyl)-3-[4-(6-[1,2,4]oxadiazol-3-yl-pyrimidin-4-yloxy)-phenyl]-urea]	> 10	≤ 10	≤ 10
COc1cc(CNC(=O)Nc2cccc(Oc3ccnc(-c4nnco4)c3)c2)cc(OC)c1OC [Example 5, 1-[3-(2-[1,3,4]Oxadiazol-2-yl-pyridin-4-yloxy)-phenyl]-3-(3,4,5-trimethoxybenzyl)-urea]	≤ 10	≤ 10	> 10
Cc1cc(Oc2ccc(NC(=O)Nc3ccc(Cl)c(C(F)(F)F)c3)cc2)nc(-n2ccnc2)n1 [Example 6, 1-(4-(2-(1H-imidazol-1-yl)-6-methylpyrimidin-4-yloxy)phenyl)-3-(4-chloro-3-(trifluoromethyl)phenyl)urea]	≤ 10	> 10	> 10
O=C(Nc1ccc(Oc2ccnc(-c3ncon3)n2)cc1)Nc1ccc(Cl)c(C(F)(F)F)c1 [Example 7, 1-(4-(2-(1,2,4-Oxadiazol-3-yl)pyrimidin-4-yloxy)phenyl)-3-(4-chloro-3-(trifluoromethyl)phenyl)urea]	> 10		
O=C(Nc1ccc(Oc2cc(-c3nnco3)ncn2)cc1)Nc1ccc(Cl)c(C(F)(F)F)c1 [Example 8, 1-(4-(6-(1,3,4-Oxadiazol-2-yl)pyrimidin-4-yloxy)phenyl)-3-(4-chloro-3-(trifluoromethyl)phenyl)urea]	≤ 10	≤ 10	≤ 10
O=C(Nc1cccc(Oc2cc(-c3nnco3)ncn2)c1)Nc1ccc(Cl)c(C(F)(F)F)c1 [Example 9, 1-(3-(6-(1,3,4-Oxadiazol-2-yl)pyrimidin-4-yloxy)phenyl)-3-(4-chloro-3-(trifluoromethyl)phenyl)urea]	≤ 10	≤ 10	≤ 10
O=C(Nc1cccc(Oc2cc(-c3ncon3)ncn2)c1)Nc1ccc(Cl)c(C(F)(F)F)c1 [Example 10, 1-(3-(6-(1,2,4-Oxadiazol-3-yl)pyrimidin-4-yloxy)phenyl)-3-(4-chloro-3-(trifluoromethyl)phenyl)urea]	≤ 10	≤ 10	≤ 10
Cc1nnc(-c2cc(Oc3cccc(NC(=O)Nc4ccc(Cl)c(C(F)(F)F)c4)c3)ncn2)o1 [Example 11, 1-(4-Chloro-3-(trifluoromethyl)phenyl)-3-(3-(6-(5-methyl-1,3,4-oxadiazol-2-yl)pyrimidin-4-yloxy)phenyl)urea]	≤ 10	≤ 10	≤ 10
O=C(Nc1cccc(Oc2ccnc(-c3nnco3)n2)c1)Nc1ccc(Cl)c(C(F)(F)F)c1 [Example 12, 1-(3-(2-(1,3,4-oxadiazol-2-yl)pyrimidin-4-yloxy)phenyl)-3-(4-chloro-3-(trifluoromethyl)phenyl)urea]	≤ 10	≤ 10	≤ 10
O=C(Nc1ccc(Oc2cc(-c3ncco3)ncn2)cc1)Nc1ccc(Cl)c(C(F)(F)F)c1 [Example 13, 1-(4-Chloro-3-(trifluoromethyl)phenyl)-3-(4-(6-(oxazol-2-yl)pyrimidin-4-yloxy)phenyl)urea]	≤ 10	≤ 10	≤ 10
O=C(Nc1cccc(Oc2cc(-c3ncco3)ncn2)c1)Nc1ccc(Cl)c(C(F)(F)F)c1 [Example 14, 1-(4-chloro-3-(trifluoromethyl)phenyl)-3-(3-(6-(oxazol-2-yl)pyrimidin-4-yloxy)phenyl)urea]	≤ 10	≤ 10	≤ 10
O=C(Nc1cccc(Oc2cc(-c3ncno3)ncn2)c1)Nc1ccc(Cl)c(C(F)(F)F)c1 [Example 15, 1-(3-(6-(1,2,4-oxadiazol-5-yl)pyrimidin-4-yloxy)phenyl)-3-(4-chloro-3-(trifluoromethyl)phenyl)urea]	≤ 10	≤ 10	≤ 10
Cn1ncnc1-c1cc(Oc2cccc(NC(=O)Nc3ccc(Cl)c(C(F)(F)F)c3)c2)ncn1 [Example 16, 1-(4-Chloro-3-(trifluoromethyl)phenyl)-3-(3-(6-(1-methyl-1H-1,2,4-triazol-5-yl)pyrimidin-4-yloxy)phenyl)urea]	≤ 10	≤ 10	≤ 10
O=C(Nc1cccc(Oc2cc(-c3ncn[nH]3)ncn2)c1)Nc1ccc(Cl)c(C(F)(F)F)c1 [Example 17, 1-(3-(6-(1H-1,2,4-Triazol-5-yl)pyrimidin-4-yloxy)phenyl)-3-(4-chloro-3-(trifluoromethyl)phenyl)urea]	≤ 10	≤ 10	≤ 10
O=C(Nc1ccc(Oc2cc(-c3ncno3)ncn2)cc1)Nc1ccc(Cl)c(C(F)(F)F)c1 [Example 18, 1-(4-(6-(1,2,4-Oxadiazol-5-yl)pyrimidin-4-yloxy)phenyl)-3-(4-chloro-3-(trifluoromethyl)phenyl)urea]	> 10	≤ 10	≤ 10
O=C(Nc1cccc(Oc2cc(-c3nnn[nH]3)ncn2)c1)Nc1ccc(Cl)c(C(F)(F)F)c1 [Example 19, 1-(3-(6-(1H-Tetrazol-5-yl)pyrimidin-4-yloxy)phenyl)-3-(4-chloro-3-(trifluoromethyl)phenyl)urea]	> 10	≤ 10	≤ 10
Cn1nnc(-c2cc(Oc3cccc(NC(=O)Nc4ccc(Cl)c(C(F)(F)F)c4)c3)ncn2)n1 [Example 20, 1-(4-Chloro-3-(trifluoromethyl)phenyl)-3-(3-(6-(2-methyl-2H-tetrazol-5-yl)pyrimidin-4-yloxy)phenyl)urea]	≤ 10	≤ 10	≤ 10
Cn1nnnc1-c1cc(Oc2cccc(NC(=O)Nc3ccc(Cl)c(C(F)(F)F)c3)c2)ncn1 [Example 21, 1-(4-chloro-3-(trifluoromethyl)phenyl)-3-(3-(6-(1-methyl-1H-tetrazol-5-yl)pyrimidin-4-yloxy)phenyl)urea]	≤ 10	≤ 10	≤ 10
O=C(Nc1ccc(Oc2cc(-c3ncn[nH]3)ncn2)cc1)Nc1ccc(Cl)c(C(F)(F)F)c1 [Example 22, 1-(4-(6-(1H-1,2,4-Triazol-5-yl)pyrimidin-4-yloxy)phenyl)-3-(4-chloro-3-(trifluoromethyl)phenyl)urea]	≤ 10	≤ 10	≤ 10
NC(=O)Cn1cc(-c2cc(Oc3cccc(NC(=O)Nc4ccc(Cl)c(C(F)(F)F)c4)c3)ncn2)cn1 [Example 55, 2-(4-(6-(3-(3-(4-Chloro-3-(trifluoromethyl)phenyl)ureido)phenoxy)pyrimidin-4-yl)-1H-pyrazol-1-yl)acetamide]	≤ 10	≤ 10	

From patent publication US20070155764A1, “NOVEL SUBSTITUTED PYRIMIDINYLOXY UREAS USEFUL AS INHIBITORS OF PROTEIN KINASES” (KALYPSYS, INC., priority 2005, published 2007)
